Assay results reported in patent publication US20040152786A1, “Preventive or remedy for diseases caused by cerebrovascular disturbances” (priority 2003, published 2004).

What was measured:
[1] = system: ischemic re-perfusion rat model; experiment: Infarct lesion area and volume, ischemic re-perfusion rat model; format: in vivo
Description: An influence of the cyclohexenone long-chain fatty alcoholic compound, which had been prepared in Preparation Example 2, on each of the area and volume of the infarct lesion was studied using an ischemic re-perfusion rat model.
The 8-week-old rats were occluded, at the middle brain artery thereof, with a nylon stopper for 2 hours, followed by intraperitoneal administration of the compound of Preparation Example 2 in amounts of 0.5 mg/kg, 2 mg/kg and 8 mg/kg, respectively, rightly before re-perfusion. After removal of the nylon stopper, re-perfusion was conducted. Twenty four hours after occlusion, the brain was enucleated and each of the area and volume of the infarct lesion was measured in a similar manner to Test 2.

[2] = system: middle-cerebral-artery permanently-occluded rat model; experiment: Infarct lesion area and volume, middle-cerebral-artery permanently-occluded rat model; format: in vivo
Text: An influence of the cyclohexenone long-chain fatty alcoholic compound, which had been obtained in Preparation Example 2, on the area and volume of the infarct lesion caused by ischemia was studied using a middle-cerebral-artery permanently-occluded rat model.
The middle cerebral artery of an 8-week-old rat was electrically coagulated and occluded by a bipolar coagulator (MICRO-3D [Mizuho Co., Ltd.]). The compound obtained in Preparation Example 2 was intraperitoneally administered in an amount of 0.3 mg/kg, 2 mg/kg and 8 mg/kg rightly after the occlusion of the middle cerebral artery, respectively. After 24 hours, the brain was enucleated and cut into slices of 2 mm thick. Each slice was stained with 1% 2,3,5-triphenyltetrazolium chloride (TTC), followed by the taking of photos. The photograph was analyzed and the area of the infarct lesion was measured. The volume of the infarct lesion was calculated from the below-described equation. […]
a: infarct area (B+4) on the cross-section 4 mm forward from the forehead, b: infarct area (B+2) on the cross-section 2 mm forward from the forehead, c: infarct area (B) on the cross-section of the forehead, d: infarct area (B-2) on the cross-section 2 mm backward from the forehead, and e: infarct area (B-4) on the-cross-section 4 mm backward from the forehead.

[3] = 2 hours occlusion, intraperitoneal 0.5, 2 and 8 mg/kg rightly before re-perfusion, 24 hours after occlusion
[4] = intraperitoneal dose of 2 mg/kg

SMILES: CC1=C(CCCCCCCCCCCCCCCO)C(C)(C)CCC1=O [Preparation Example 2, 3-(15-hydroxypentadecyl)-2,4,4-trimethyl-2-cyclohexen-1-one]
- area of the infarct lesion [1, 3]: reduction
- volume of the infarct lesion [1, 3]: reduction
- brain protective action [1, 4]: marked brain protective action
- volume of the infarct lesion ([2]; intraperitoneal 0.3, 2 and 8 mg/kg rightly after occlusion, after 24 hours, V=a+2(b+c+d)+e): reduction
- area of the infarct lesion ([2]; intraperitoneal 0.3, 2 and 8 mg/kg rightly after occlusion, brain taken after 24 hours, TTC staining): reduction
- brain protective action [2, 4]: marked brain protective action
